Consider 20 substances from the OligoGym collection.

Oligonucleotides are given in HELM: sugar(base)linkage, 5' to 3'; d 2'-deoxyribose, r ribose, m 2'-O-methylribose, p phosphate. ss, as = sense and antisense strand
Also: test concentration or dose not given here.

The data set addresses TMEM63B. Nature of the data set: reporter assay of Huesken 2005. The conditions noted are these: siRNA. (In general: In a reporter assay the amount or activity of a reporter protein is the signal.)
In the case of “RNA1{r(A)p.r(U)p.r(G)p.r(G)p.r(A)p.r(A)p.r(U)p.r(C)p.r(U)p.r(C)p.r(C)p.r(A)p.r(A)p.r(A)p.r(U)p.r(A)p.r(U)p.r(G)p.r(C)p.d(T)p.d(T)}|RNA2{r(G)p.r(C)p.r(A)p.r(U)p.r(A)p.r(U)p.r(U)p.r(U)p.r(G)p.r(G)p.r(A)p.r(G)p.r(A)p.r(U)p.r(U)p.r(C)p.r(C)p.r(A)p.r(U)p.d(T)p.d(G)}$$$RNA1{StrandType:ss}|RNA2{StrandType:as}$”, the normalised inhibition (eCFP-eYFP dual reporter) stood at 78.7%. With “RNA1{r(A)p.r(C)p.r(C)p.r(A)p.r(G)p.r(G)p.r(U)p.r(G)p.r(G)p.r(U)p.r(G)p.r(G)p.r(C)p.r(C)p.r(G)p.r(C)p.r(G)p.r(C)p.r(C)p.d(T)p.d(T)}|RNA2{r(G)p.r(G)p.r(C)p.r(G)p.r(C)p.r(G)p.r(G)p.r(C)p.r(C)p.r(A)p.r(C)p.r(C)p.r(A)p.r(C)p.r(C)p.r(U)p.r(G)p.r(G)p.r(U)p.d(T)p.d(C)}$$$RNA1{StrandType:ss}|RNA2{StrandType:as}$” the figure was 57.6%.

Consider “RNA1{r(U)p.r(U)p.r(A)p.r(U)p.r(C)p.r(G)p.r(G)p.r(C)p.r(A)p.r(A)p.r(C)p.r(G)p.r(C)p.r(C)p.r(A)p.r(U)p.r(G)p.r(G)p.r(A)p.d(T)p.d(T)}|RNA2{r(U)p.r(C)p.r(C)p.r(A)p.r(U)p.r(G)p.r(G)p.r(C)p.r(G)p.r(U)p.r(U)p.r(G)p.r(C)p.r(C)p.r(G)p.r(A)p.r(U)p.r(A)p.r(A)p.d(A)p.d(G)}$$$RNA1{StrandType:ss}|RNA2{StrandType:as}$”, for which the normalised inhibition (eCFP-eYFP dual reporter) is 62.7%. With “RNA1{r(U)p.r(G)p.r(A)p.r(C)p.r(C)p.r(A)p.r(A)p.r(A)p.r(G)p.r(G)p.r(G)p.r(A)p.r(C)p.r(A)p.r(A)p.r(U)p.r(G)p.r(G)p.r(U)p.d(T)p.d(T)}|RNA2{r(A)p.r(C)p.r(C)p.r(A)p.r(U)p.r(U)p.r(G)p.r(U)p.r(C)p.r(C)p.r(C)p.r(U)p.r(U)p.r(U)p.r(G)p.r(G)p.r(U)p.r(C)p.r(A)p.d(A)p.d(A)}$$$RNA1{StrandType:ss}|RNA2{StrandType:as}$” the figure was 70.9%.

Regarding “RNA1{r(C)p.r(U)p.r(G)p.r(C)p.r(U)p.r(C)p.r(A)p.r(U)p.r(G)p.r(U)p.r(A)p.r(C)p.r(A)p.r(U)p.r(G)p.r(A)p.r(U)p.r(C)p.r(C)p.d(T)p.d(T)}|RNA2{r(G)p.r(G)p.r(A)p.r(U)p.r(C)p.r(A)p.r(U)p.r(G)p.r(U)p.r(A)p.r(C)p.r(A)p.r(U)p.r(G)p.r(A)p.r(G)p.r(C)p.r(A)p.r(G)p.d(G)p.d(C)}$$$RNA1{StrandType:ss}|RNA2{StrandType:as}$”, the normalised inhibition (eCFP-eYFP dual reporter) came to 49%. With “RNA1{r(U)p.r(U)p.r(G)p.r(C)p.r(U)p.r(G)p.r(A)p.r(U)p.r(G)p.r(C)p.r(C)p.r(A)p.r(C)p.r(C)p.r(C)p.r(G)p.r(A)p.r(C)p.r(G)p.d(T)p.d(T)}|RNA2{r(C)p.r(G)p.r(U)p.r(C)p.r(G)p.r(G)p.r(G)p.r(U)p.r(G)p.r(G)p.r(C)p.r(A)p.r(U)p.r(C)p.r(A)p.r(G)p.r(C)p.r(A)p.r(A)p.d(C)p.d(T)}$$$RNA1{StrandType:ss}|RNA2{StrandType:as}$” the figure was 39.7%; with “RNA1{r(G)p.r(U)p.r(C)p.r(C)p.r(U)p.r(U)p.r(U)p.r(C)p.r(A)p.r(G)p.r(C)p.r(G)p.r(G)p.r(C)p.r(A)p.r(C)p.r(A)p.r(U)p.r(C)p.d(T)p.d(T)}|RNA2{r(G)p.r(A)p.r(U)p.r(G)p.r(U)p.r(G)p.r(C)p.r(C)p.r(G)p.r(C)p.r(U)p.r(G)p.r(A)p.r(A)p.r(A)p.r(G)p.r(G)p.r(A)p.r(C)p.d(A)p.d(G)}$$$RNA1{StrandType:ss}|RNA2{StrandType:as}$”, 65.1%.

On to “RNA1{r(C)p.r(G)p.r(A)p.r(G)p.r(G)p.r(C)p.r(U)p.r(G)p.r(U)p.r(G)p.r(A)p.r(G)p.r(C)p.r(A)p.r(G)p.r(G)p.r(U)p.r(G)p.r(G)p.d(T)p.d(T)}|RNA2{r(C)p.r(C)p.r(A)p.r(C)p.r(C)p.r(U)p.r(G)p.r(C)p.r(U)p.r(C)p.r(A)p.r(C)p.r(A)p.r(G)p.r(C)p.r(C)p.r(U)p.r(C)p.r(G)p.d(C)p.d(A)}$$$RNA1{StrandType:ss}|RNA2{StrandType:as}$”, for which the normalised inhibition (eCFP-eYFP dual reporter) worked out at 42.2%. The result for “RNA1{r(G)p.r(U)p.r(C)p.r(U)p.r(C)p.r(A)p.r(C)p.r(C)p.r(U)p.r(C)p.r(U)p.r(G)p.r(U)p.r(C)p.r(U)p.r(C)p.r(C)p.r(A)p.r(G)p.d(T)p.d(T)}|RNA2{r(C)p.r(U)p.r(G)p.r(G)p.r(A)p.r(G)p.r(A)p.r(C)p.r(A)p.r(G)p.r(A)p.r(G)p.r(G)p.r(U)p.r(G)p.r(A)p.r(G)p.r(A)p.r(C)p.d(G)p.d(C)}$$$RNA1{StrandType:ss}|RNA2{StrandType:as}$” reads 88.6%; that for “RNA1{r(C)p.r(U)p.r(G)p.r(C)p.r(G)p.r(C)p.r(U)p.r(G)p.r(C)p.r(C)p.r(U)p.r(G)p.r(G)p.r(U)p.r(C)p.r(A)p.r(U)p.r(C)p.r(A)p.d(T)p.d(T)}|RNA2{r(U)p.r(G)p.r(A)p.r(U)p.r(G)p.r(A)p.r(C)p.r(C)p.r(A)p.r(G)p.r(G)p.r(C)p.r(A)p.r(G)p.r(C)p.r(G)p.r(C)p.r(A)p.r(G)p.d(C)p.d(C)}$$$RNA1{StrandType:ss}|RNA2{StrandType:as}$”, 66.1%; that for “RNA1{r(A)p.r(G)p.r(C)p.r(C)p.r(U)p.r(A)p.r(C)p.r(C)p.r(C)p.r(C)p.r(A)p.r(A)p.r(C)p.r(U)p.r(G)p.r(C)p.r(A)p.r(C)p.r(A)p.d(T)p.d(T)}|RNA2{r(U)p.r(G)p.r(U)p.r(G)p.r(C)p.r(A)p.r(G)p.r(U)p.r(U)p.r(G)p.r(G)p.r(G)p.r(G)p.r(U)p.r(A)p.r(G)p.r(G)p.r(C)p.r(U)p.d(T)p.d(C)}$$$RNA1{StrandType:ss}|RNA2{StrandType:as}$”, 70.7%. With “RNA1{r(C)p.r(U)p.r(A)p.r(G)p.r(C)p.r(U)p.r(C)p.r(C)p.r(C)p.r(A)p.r(C)p.r(G)p.r(U)p.r(C)p.r(U)p.r(A)p.r(U)p.r(G)p.r(U)p.d(T)p.d(T)}|RNA2{r(A)p.r(C)p.r(A)p.r(U)p.r(A)p.r(G)p.r(A)p.r(C)p.r(G)p.r(U)p.r(G)p.r(G)p.r(G)p.r(A)p.r(G)p.r(C)p.r(U)p.r(A)p.r(G)p.d(G)p.d(A)}$$$RNA1{StrandType:ss}|RNA2{StrandType:as}$” the figure was 66.7%; with “RNA1{r(C)p.r(C)p.r(G)p.r(C)p.r(C)p.r(G)p.r(A)p.r(G)p.r(A)p.r(G)p.r(G)p.r(C)p.r(G)p.r(C)p.r(A)p.r(A)p.r(C)p.r(G)p.r(U)p.d(T)p.d(T)}|RNA2{r(A)p.r(C)p.r(G)p.r(U)p.r(U)p.r(G)p.r(C)p.r(G)p.r(C)p.r(C)p.r(U)p.r(C)p.r(U)p.r(C)p.r(G)p.r(G)p.r(C)p.r(G)p.r(G)p.d(C)p.d(C)}$$$RNA1{StrandType:ss}|RNA2{StrandType:as}$”, 21.8%; with “RNA1{r(G)p.r(A)p.r(C)p.r(U)p.r(U)p.r(C)p.r(A)p.r(A)p.r(C)p.r(G)p.r(U)p.r(G)p.r(U)p.r(G)p.r(U)p.r(A)p.r(A)p.r(A)p.r(U)p.d(T)p.d(T)}|RNA2{r(A)p.r(U)p.r(U)p.r(U)p.r(A)p.r(C)p.r(A)p.r(C)p.r(A)p.r(C)p.r(G)p.r(U)p.r(U)p.r(G)p.r(A)p.r(A)p.r(G)p.r(U)p.r(C)p.d(C)p.d(T)}$$$RNA1{StrandType:ss}|RNA2{StrandType:as}$”, 102%. The result for “RNA1{r(U)p.r(C)p.r(U)p.r(G)p.r(G)p.r(G)p.r(G)p.r(A)p.r(G)p.r(A)p.r(A)p.r(C)p.r(A)p.r(G)p.r(G)p.r(A)p.r(C)p.r(A)p.r(A)p.d(T)p.d(T)}|RNA2{r(U)p.r(U)p.r(G)p.r(U)p.r(C)p.r(C)p.r(U)p.r(G)p.r(U)p.r(U)p.r(C)p.r(U)p.r(C)p.r(C)p.r(C)p.r(C)p.r(A)p.r(G)p.r(A)p.d(G)p.d(C)}$$$RNA1{StrandType:ss}|RNA2{StrandType:as}$” reads 68%; that for “RNA1{r(C)p.r(U)p.r(C)p.r(U)p.r(C)p.r(C)p.r(G)p.r(U)p.r(A)p.r(G)p.r(G)p.r(C)p.r(A)p.r(U)p.r(C)p.r(G)p.r(U)p.r(G)p.r(C)p.d(T)p.d(T)}|RNA2{r(G)p.r(C)p.r(A)p.r(C)p.r(G)p.r(A)p.r(U)p.r(G)p.r(C)p.r(C)p.r(U)p.r(A)p.r(C)p.r(G)p.r(G)p.r(A)p.r(G)p.r(A)p.r(G)p.d(G)p.d(A)}$$$RNA1{StrandType:ss}|RNA2{StrandType:as}$”, 75.8%.

With “RNA1{r(A)p.r(A)p.r(C)p.r(C)p.r(A)p.r(C)p.r(C)p.r(A)p.r(U)p.r(U)p.r(G)p.r(C)p.r(C)p.r(A)p.r(A)p.r(C)p.r(U)p.r(U)p.r(G)p.d(T)p.d(T)}|RNA2{r(C)p.r(A)p.r(A)p.r(G)p.r(U)p.r(U)p.r(G)p.r(G)p.r(C)p.r(A)p.r(A)p.r(U)p.r(G)p.r(G)p.r(U)p.r(G)p.r(G)p.r(U)p.r(U)p.d(C)p.d(T)}$$$RNA1{StrandType:ss}|RNA2{StrandType:as}$”, the normalised inhibition (eCFP-eYFP dual reporter) was found to be 34.2%. With “RNA1{r(U)p.r(A)p.r(A)p.r(A)p.r(G)p.r(G)p.r(A)p.r(U)p.r(G)p.r(A)p.r(U)p.r(G)p.r(A)p.r(G)p.r(A)p.r(U)p.r(C)p.r(C)p.r(G)p.d(T)p.d(T)}|RNA2{r(C)p.r(G)p.r(G)p.r(A)p.r(U)p.r(C)p.r(U)p.r(C)p.r(A)p.r(U)p.r(C)p.r(A)p.r(U)p.r(C)p.r(C)p.r(U)p.r(U)p.r(U)p.r(A)p.d(T)p.d(C)}$$$RNA1{StrandType:ss}|RNA2{StrandType:as}$” the figure was 24.7%. As to “RNA1{r(G)p.r(G)p.r(U)p.r(G)p.r(G)p.r(C)p.r(C)p.r(G)p.r(C)p.r(G)p.r(C)p.r(C)p.r(C)p.r(A)p.r(U)p.r(C)p.r(C)p.r(U)p.r(C)p.d(T)p.d(T)}|RNA2{r(G)p.r(A)p.r(G)p.r(G)p.r(A)p.r(U)p.r(G)p.r(G)p.r(G)p.r(C)p.r(G)p.r(C)p.r(G)p.r(G)p.r(C)p.r(C)p.r(A)p.r(C)p.r(C)p.d(A)p.d(C)}$$$RNA1{StrandType:ss}|RNA2{StrandType:as}$”, the normalised inhibition (eCFP-eYFP dual reporter) came to 49.4%. With “RNA1{r(A)p.r(C)p.r(U)p.r(A)p.r(C)p.r(A)p.r(A)p.r(G)p.r(C)p.r(G)p.r(G)p.r(G)p.r(A)p.r(G)p.r(A)p.r(A)p.r(G)p.r(G)p.r(A)p.d(T)p.d(T)}|RNA2{r(U)p.r(C)p.r(C)p.r(U)p.r(U)p.r(C)p.r(U)p.r(C)p.r(C)p.r(C)p.r(G)p.r(C)p.r(U)p.r(U)p.r(G)p.r(U)p.r(A)p.r(G)p.r(U)p.d(C)p.d(T)}$$$RNA1{StrandType:ss}|RNA2{StrandType:as}$” the figure was 72%.
